# Experimental data: patent publication US9078810B2, “Transdermal delivery system” (Acrux DDS Pty Ltd., priority 2007, dated 2015)
# Read-outs that look alike come from different tables or passages of the source.
# How the values were obtained:
# [1] = format: in vitro ADME, human
# Description: The receptor solutions (Phosphate Buffered Saline pH7.4) maintained sink conditions below the skin.
# The formulations consisted of:— • Composition (Camp) 1 (Control): 1.35% Nestorone (NES), 0.35% Ethinylestradiol (EE), 5% Octyl Salicylate (OS) in Isopropyl Alcohol (IPA) • Comp 2: 1.35% NES, 0.35% EE, 5% OS, 5% Polyethylene glycol 400 (PEG400) in IPA • Comp 3: 1.35% NES, 0.35% EE, 0.5% Polyethylene glycol (PEG200) in IPA • Comp 4: 1.35% NES, 0.35% EE, 5% OS, 0.5% PEG200 in IPA • Comp 5: 1.35% NES, 0.35% EE, 1% PEG200 in IPA • Comp 6: 1.35% NES, 0.35% EE, 5% OS, 1% PEG200 in IPA • Comp 7: 1.35% NES, 0.35% EE, 2.5% PEG200 in IPA • Comp 8: 1.35% NES, 0.35% EE, 5% OS, 2.5% PEG200 in IPA • Comp 9: 1.35% NES, 0.35% EE, 5% PEG200 in IPA • Comp 10:1.35% NES, 0.35% EE, 5% OS, 5% PEG200 in IPA • Comp 11: 1.35% NES, 0.35% EE, 10% PEG200 in IPA • Camp 12: 1.35% NES, 0.35% EE, 5% OS, 10% PEG200 in IPA
# [2] = Finite-dose in vitro diffusion study, Franz-type cells, 24 hours (Example 1); format: in vitro ADME, human; conditions: effect of PEG200 in combination with OS vs 5% OS comparison composition, 2.8% NETA, 0.55% E2, 3.6 μL/cm2
# Protocol: These experiments were performed over 24 hours using Franz-type cells. Pre-cut skin membranes were mounted as a barrier between the halves of greased (high vacuum grease, BDH) horizontal Franz-type permeation cells in the middle of the receptor chamber of the cell with the stratum corneum facing the donor chamber. The area available for permeation was approximately 0.925 cm2. The receptor chambers of the permeation cells were filled with the receptor phase (Phosphate Buffered Saline pH 7.4) and capped. The permeation cells were immersed in a constant temperature water bath such that the receptor chambers were maintained at 35° C. Receptor chamber contents were continuously agitated by small PTFE-coated magnetic stirrer bars driven by submersible magnetic stirrers. The skin was allowed to equilibrate to temperature with receptor solution for 1 h in the water bath prior to dosing.
# The formulations were applied to the skin at a dose of 3.6 μL/cm2. The applied formulation was spread over the skin area using an Eppendorf positive displacement pipette tip without breaking the skin membrane. […]
# [3] = Diclofenac Transdermal Spray finite-dose in vitro diffusion study (Example 6); format: in vitro ADME, human; conditions: 24 hr
# Protocol: Finite-dose in vitro diffusion studies were undertaken dermatomed skin (Padgett Model B or S electric dermatome set at 500 μm) prepared from excised […], abdominal skin.
# These experiments were conducted over 24 hours using flow-through systems with a 1-cm^2 administration area.
# Following a 2-h equilibration of the skin with the receptor solution (RS) of phosphate-buffered saline (PBS) pH 7.4, the stratum corneum surface was dosed with a volume of 3.6 μL/cm^2 (unless otherwise indicated) of a test formulation using a positive displacement pipette. The formulation was spread evenly over the skin area using the pipette tip.
# The Diclofenac Transdermal Spray formulations were as follows: — • 0.1-2.0% Diclofenac (DIC) diethylamine in Isopropyl alcohol (IPA) [no enhancer] • 0.1-2.0% DIC diethylamine, 5% Octyl Salicylate (OS) in IPA [OS alone] • 0.1-2.0% DIC diethylamine, 2.5% Polyethylene glycol 200 (PEG 200) in IPA [PEG 200 alone] • 0.1-2.0% DIC diethylamine, 5% OS, 2.5% PEG 200 in IPA [OS+PEG 200]
# A commercially available Diclofenac gel (approximately 5 mg/cm2) was used as a control. The commercially available gel was applied using a solid cap to simulate the rubbing action required when using the product. Approximately 7 mg gel was applied to the circular surface of a black polypropylene cylindrical cap (Alltech catalogue #98105, diameter 11 mm). […]
# [4] = Finite-dose in vitro diffusion study, flow through diffusion cells, 15 μL/cm2 (Example 3); conditions: effect of PEG200 (0.5-2.5%) in combination with 5% OS, 2% TES, 2% PVP, 30% IPA in ethanol, 24 hr
# Protocol: These experiments were performed over 24 hours using stainless steel, flow through diffusion cells based on those described previously (Cooper, E. R. J. Pharm. Sci. 1984, 73, 1153-1156) except that the cell was modified to increase the diffusion area to 1.0 cm2. The formulations were applied using a finite dose technique (Franz, T. J. Curr. Probl. Dermatol., 1978, 7, 58-68) to mimic clinical dosing conditions at an applied dose volume of 15 μL/cm2. […] The receptor solutions (0.002% w/v NaN3) maintained sink conditions below the skin.
# The formulations consisted of:— • Comp 1: 2% Testosterone (TES), 5% Octyl Salicylate (OS), 2% polyvinyl pyrrolidine (PVP), 30% isopropyl alcohol (IPA) in ethanol (95%) • Comp 2: 2% TES, 5% OS, 2% PVP, 30% IPA, 0.5% polyethylene glycol 200 (PEG200) in ethanol (95%) • Comp 3: 2% TES, 5% OS, 2% PVP, 30% IPA, 1.0% PEG200 in ethanol (95%) • Comp 4: 2% TES, 5% OS, 2% PVP, 30% IPA, 2.5% PEG200 in ethanol (95%)
# [5] = Finite-dose in vitro diffusion study, flow through diffusion cells, 3.6 μL/cm2 (Example 4); conditions: effect of PEG200 (1.0-2.5%) in combination with 5% OS, 5% TES in ethanol (95%), 24 hr
# Protocol: These experiments were performed over 24 hours using stainless steel, flow through diffusion cells based on those described previously (Cooper, E. R. J. Pharm. Sci. 1984, 73, 1153-1156) except that the cell was modified to increase the diffusion area to 1.0 cm2. The formulations were applied using a finite dose technique (Franz, T. J. Curr. Probl. Dermatol., 1978, 7, 58-68) to mimic clinical dosing conditions at an applied dose volume of 3.6 μL/cm2. […] The receptor solutions (0.002% w/v NaN3) maintained sink conditions below the skin.
# [6] = Estradiol Spray finite-dose in vitro permeation study (Example 7); format: in vitro ADME, human; conditions: 24 h
# Protocol: Finite-dose in vitro permeation studies were undertaken using dermatomed skin (Padgett Model B or S electric dermatome set at 500 μm) prepared from excised […], abdominal skin.
# These experiments were conducted over 24 hours (h) using flow-through systems with a 1-cm2 administration area. […] The receptor solution was maintained at a nominal flow rate of 0.5 mL/h by a peristaltic pump (Watson Marlow 520S Peristaltic Pump with 313A adaptor and 308MC 8 roller pump-head; Stauff Corporation, Australia). The cells were placed on a heater bar to keep the temperature of the skin at 32±1° C.
# Following a 2-h equilibration of the skin with the receptor solution (RS; 0.002% sodium azide), the stratum corneum surface was dosed with 3.6 μL/cm^2 of an Estradiol Transdermal Spray formulation using a positive displacement pipette. The formulation was spread evenly over the skin area using the pipette tip.
# The Estradiol transdermal spray formulations contained:— • Estradiol (E2)+Octyl Salicylate (OS) in Isopropyl Alcohol IPA • E2+OS+Polyethylene glycol (PEG200) in Isopropyl Alcohol IPA • E2+OS+Polyethylene glycol 400 (PEG400) in IPA
compound,measurement,setting,value
C#C[C@]1(O)CC[C@H]2[C@@H]3CCc4cc(O)ccc4[C@H]3CC[C@@]21C [Ethinylestradiol],permeation through human epidermis in vitro,[1],inhibit
C#C[C@]1(OC(C)=O)CC[C@H]2[C@@H]3CCC4=CC(=O)CC[C@@H]4[C@H]3CC[C@@]21C [Norethisterone Acetate],permeation through human epidermis in vitro,[2],significantly enhance
"O=C(O)Cc1ccccc1Nc1c(Cl)cccc1Cl [DIC, Diclofenac]",permeation through human epidermis in vitro,"[3]; effect of PEG200 in combination with OS, DIC diethylamine, 5% OS, 2.5% PEG 200 in IPA",significantly enhance
same,permeation through human epidermis in vitro,"[3]; effect of PEG 400, either alone or in combination with OS",decrease
C=C1C[C@H]2[C@@H]3CCC4=CC(=O)CC[C@@H]4[C@H]3CC[C@]2(C)[C@@]1(OC(C)=O)C(C)=O [Nestorone],permeation through human epidermis in vitro,[1],did not have a significant effect
C[C@]12CC[C@H]3[C@@H](CCC4=CC(=O)CC[C@@]43C)[C@@H]1CC[C@@H]2O [Testosterone],permeation through human epidermis in vitro,[4],significantly enhance
same,permeation through human epidermis in vitro,[5],significantly enhance
"C[C@]12CC[C@@H]3c4ccc(O)cc4CC[C@H]3[C@@H]1CC[C@@H]2O [estradiol, Estradiol]",permeation through human skin in vitro,"[6]; effect of PEG200 combined with OS in IPA, 3.6 μL/cm^2",synergistically enhanced
same,permeation through human skin in vitro,[6]; effect of PEG400 alone and PEG400+OS compared with the control formulation,no significant effect
same,permeation through human epidermis in vitro,[2],significantly enhance
